Type in all cases: cell-based
Assay [1] has as its system Escherichia coli ATCC 25922. Kind of assay: Suspension quantitative sterilization experiment, Escherichia coli ATCC 25922. The conditions noted are these: for Activity (killing logarithmic value): suspension method, action time 30 min. The procedure:
(§1) (5) Operation Method of Suspension Quantitative Experiment:
(§2) a. The freeze-dried strain tube was provided, opened up under an aseptic condition, and an appropriate amount of nutrient broth was added thereto with a capillary pipette. The strain was melted and dispersed by gently blowing and sucking several times. A test tube containing 5.0 mL-10.0 mL of nutrient broth medium was provided, and a small amount of bacterial suspension was dropped thereto, and incubated at 37° C. for 18 h-24 h. The bacterial suspension of the first generation culture was taken by using an inoculation loop, and streaked and inoculated onto a nutrient agar medium plate, and incubated at 37° C. for 18 h-24 h. The typical colonies from the second generation culture was picked out, inoculated onto a nutrient agar slant, and incubated at 37° C. for 18 h-24 h, obtaining the third generation culture.
(§3) b. The monoclonal strains of the third generation culture of Escherichia coli ATCC 25922, Staphylococcus aureus ATCC 29213, and Pseudomonas aeruginosa ATCC 27853 were picked out respectively and placed in 3 mL of NMB. The strains were shaken in a constant temperature culture shaker for 3 h with a rotation speed of 220 rpm, obtaining a bacterial suspension with a concentration of (1-5)×10^8 CFU/mL.
(§4) c. 0.5 mL of bacterial suspension was added to a sterile test tube, and 0.5 mL of an organic interfering substance (0.03 mol/L PBS buffer) was then added thereto. They were mixed to be uniform, and placed in a water bath at 20° C.±1° C. for 5 min. 4.0 mL of the sample to be tested prepared in step (1) was drawn with a sterile pipette and injected into the mixed solution, mixed quickly, and the time was recorded immediately.
(§5) d. After the experimental bacteria interacted with the sample to be tested for the predetermined time of 1 min, 5 min, 15 min and 30 min. 0.5 mL of the mixture of the experimental bacteria and the sample to be tested was drawn respectively and added to 4.5 mL of a neutralizer, and mixed to be uniform.
(§6) e. After 10 min of neutralization, 1.0 mL of the sample solution was drawn, and the number of viable bacteria was determined by viable count method. After the viable count method, sample solution of each pipette was inoculated onto 2 plates. When the number of colonies growing on the plate was large, 10-fold dilution was performed, and then the viable bacteria was cultured and counted.
(§7) f. At the same time, PBS buffer was used to replace the sample to be tested, and a parallel test was performed as a positive control.
(§8) g. All test samples were placed in a 37° C. incubator overnight, and the results were observed.
(§9) h. The experiment was repeated for 3 times, the concentration of viable bacteria (CFU/mL) of each group was calculated, and converted to logarithmic value (N), and then the killing logarithmic value was calculated according to the following equation:
(§10) Killing logarithmic value (KL)=the logarithmic value of the average viable bacteria concentration of the control group (No)−the logarithmic value of the viable bacteria concentration of the test group (Nx).
(§11) When calculating the killing logarithmic value, two digits after the decimal point was kept, and digital round-off was allowed.

In assay [2] the test system is Staphylococcus aureus ATCC 29213. Kind of assay: Suspension quantitative sterilization experiment, Staphylococcus aureus ATCC 29213. The conditions noted are these: for Activity (killing logarithmic value): suspension method, action time 30 min. The protocol: as §1, §2, §3, §4, §5, §6, §7, §8, §9, §10, §11
Assay [3] concerns Pseudomonas aeruginosa ATCC 27853. Kind of assay: Suspension quantitative sterilization experiment, Pseudomonas aeruginosa ATCC 27853. The conditions noted are these: for Activity (killing logarithmic value): suspension method, action time 30 min. The protocol: as §1, §2, §3, §4, §5, §6, §7, §8, §9, §10, §11
Assay [4] concerns Bacillus subtilis var. niger spores ATCC 9372. Kind of assay: Suspension quantitative experiment, Bacillus subtilis var. niger spores. The conditions noted are these: Bacillus subtilis, ATCC9372, 0.5 h, read-out: Activity (killing logarithmic value). The procedure: (4) Operation Method of Suspension Quantitative Experiment:
a. The Bacillus subtilis var. niger spores ATCC 9372 freeze-dried strain tube was provided, opened up under an aseptic condition, and an appropriate amount of nutrient broth was added thereto with a capillary pipette. The strain was melted and dispersed by gently blowing and sucking several times. A test tube containing 5.0 mL-10.0 mL of nutrient broth medium was provided, and a small amount of bacterial suspension was dropped thereto, and incubated at 37° C. for 18 h-24 h. The bacterial suspension of the first generation culture was taken by using an inoculation loop.
b. The monoclonal strains of the first generation culture were picked out and placed in 3 mL of NMB. The strains were shaken in a constant temperature culture shaker for 3 h with a rotation speed of 220 rpm, obtaining a bacterial suspension with a concentration of (1-5)×10^8 CFU/mL.
as §4
d. After the experimental bacteria interacted with the sample to be tested for the predetermined time. 0.5 mL of the mixture of the experimental bacteria and a disinfectant was drawn respectively and added to 4.5 mL of a neutralizer, and mixed to be uniform.
as §6
h. At the same time, PBS buffer was used to replace the sample to be tested, and a parallel test was performed as a positive control.
f. All test samples were placed in a 37° C. incubator overnight, and the results were observed.
g. The experiment was repeated for 3 times, the concentration of viable bacteria (CFU/mL) of each group was calculated, and converted to logarithmic value (N), and then the killing logarithmic value was calculated according to the following equation:
as §10, §11

Turning to `CNC(=O)C(c1ccncc1)c1ccc(O)c(O)c1` (stereo not shown) [Example 6, 2-(3,4-dihydroxyphenyl)-N-methyl-2-(4-pyridyl)acetamide], the “Activity (killing logarithmic value)” value in assay [1] (6.25 g/L) is 1.64; in assay [2] (6.25 g/L), 1.78; in assay [3] (6.25 g/L) it was 0.31. In assay [4], the log reduction at 15000 µg/mL came out at 0.76.

Regarding `CNC(=O)C(c1ccccc1)c1ccc(F)c(F)c1` (stereo not shown) [Example 3, 2-(3,4-difluorophenyl)-N-methyl-2-phenylacetamide], the “Activity (killing logarithmic value)” value in assay [1] (6.25 g/L) is reported as 1.14; in assay [2] (6.25 g/L) it was 1.54; in assay [3] (6.25 g/L) it was 1.56. The log reduction at 15000 µg/mL in assay [4] was 2.07.

As to `O=C(O)C(c1ccc(O)c(O)c1)c1ccc(O)c(O)c1` [Example 8, 2,2-di-(3,4-dihydroxyphenyl)acetic acid], the entries for the “Activity (killing logarithmic value)” value in assay [1] (6.25 g/L), in assay [2] (6.25 g/L) and in assay [3] (6.25 g/L) were 1.73, 0.91 and 0.88, respectively. Besides, in assay [4], the log reduction at 15000 µg/mL was 2.13.

Take `CNC(=O)C(c1ccc(O)c(O)c1)C1CCCCC1` (stereo not shown) [Example 1, 2-cyclohexyl-2-(3,4-dihydroxyphenyl)-N-methylacetamide]: the “Activity (killing logarithmic value)” value stood at 1.23 in assay [1] (6.25 g/L), 1.16 in assay [2] (6.25 g/L) and 1.31 in assay [3] (6.25 g/L). In addition, in assay [4], the log reduction at 15000 µg/mL is 1.35.

As for `Cc1cc(O)cc(C)c1Cl` [4-Chloro-3,5-dimethylphenol solution, 4-chloro-3,5-dimethylphenol], the Killing logarithmic value was found to be 1.69 in assay [1] (0.15 g/L, 1 min); 1.78 in assay [1] (0.15 g/L, 5 min); 2.32 in assay [1] (0.15 g/L, 15 min); 2.99 in assay [1] (0.15 g/L, 30 min); 6.17 in assay [1] (0.31 g/L, 1 min); 6.17 in assay [1] (0.31 g/L, 5 min). For the same molecule, the Killing logarithmic value is recorded as 6.17 in assay [1] (0.31 g/L, 15 min); 6.17 in assay [1] (0.31 g/L, 30 min); 2.07 in assay [2] (0.15 g/L, 1 min); 2.74 in assay [2] (0.15 g/L, 5 min); 2.90 in assay [2] (0.15 g/L, 15 min); 3.16 in assay [2] (0.15 g/L, 30 min). Further, the Killing logarithmic value came to 3.12 in assay [2] (0.31 g/L, 1 min); 3.30 in assay [2] (0.31 g/L, 5 min); 3.45 in assay [2] (0.31 g/L, 15 min); 4.13 in assay [2] (0.31 g/L, 30 min); 0.78 in assay [3] (0.15 g/L, 1 min); 0.87 in assay [3] (0.15 g/L, 5 min). The Killing logarithmic value came to 0.94 in assay [3] (0.15 g/L, 15 min); 0.96 in assay [3] (0.15 g/L, 30 min); 4.77 in assay [3] (0.31 g/L, 1 min); 4.87 in assay [3] (0.31 g/L, 5 min); 4.91 in assay [3] (0.31 g/L, 15 min); 4.95 in assay [3] (0.31 g/L, 30 min).

As to `Oc1ccccc1` [Phenol solution, Phenol], the Killing logarithmic value in assay [1] (0.15 g/L, 1 min) was 0.21; in assay [1] (0.15 g/L, 5 min) it was 0.29; in assay [1] (0.15 g/L, 15 min), 0.43; in assay [1] (0.15 g/L, 30 min), 0.47; in assay [1] (0.31 g/L, 1 min), 0.29; in assay [1] (0.31 g/L, 5 min), 0.31. The Killing logarithmic value is 0.46 in assay [1] (0.31 g/L, 15 min); 0.58 in assay [1] (0.31 g/L, 30 min); 0.32 in assay [1] (0.78 g/L, 1 min); 0.46 in assay [1] (0.78 g/L, 5 min); 0.63 in assay [1] (0.78 g/L, 15 min); 0.79 in assay [1] (0.78 g/L, 30 min). The Killing logarithmic value in assay [1] (1.56 g/L, 1 min) turned out to be 0.47; in assay [1] (1.56 g/L, 5 min) it was 0.65; in assay [1] (1.56 g/L, 15 min), 0.78; in assay [1] (1.56 g/L, 30 min), 0.99; in assay [1] (3.12 g/L, 1 min), 0.69; in assay [1] (3.12 g/L, 5 min), 0.76. Moreover, the Killing logarithmic value in assay [1] (3.12 g/L, 15 min) was 0.81; in assay [1] (3.12 g/L, 30 min) it was 1.02; in assay [1] (6.25 g/L, 1 min), 3.57; in assay [1] (6.25 g/L, 5 min) it was 3.69; in assay [1] (6.25 g/L, 15 min), 5.86; in assay [1] (6.25 g/L, 30 min), 6.17. For the same molecule, the Killing logarithmic value was determined as 0.45 in assay [2] (0.15 g/L, 1 min); 0.48 in assay [2] (0.15 g/L, 5 min); 0.55 in assay [2] (0.15 g/L, 15 min); 0.73 in assay [2] (0.15 g/L, 30 min); 0.67 in assay [2] (0.31 g/L, 1 min); 0.69 in assay [2] (0.31 g/L, 5 min). Moreover, the Killing logarithmic value amounted to 0.73 in assay [2] (0.31 g/L, 15 min); 0.86 in assay [2] (0.31 g/L, 30 min); 0.79 in assay [2] (0.78 g/L, 1 min); 0.82 in assay [2] (0.78 g/L, 5 min); 0.89 in assay [2] (0.78 g/L, 15 min); 0.95 in assay [2] (0.78 g/L, 30 min). The Killing logarithmic value came to 0.86 in assay [2] (1.56 g/L, 1 min); 0.91 in assay [2] (1.56 g/L, 5 min); 0.99 in assay [2] (1.56 g/L, 15 min); 1.02 in assay [2] (1.56 g/L, 30 min); 1.13 in assay [2] (3.12 g/L, 1 min); 1.21 in assay [2] (3.12 g/L, 5 min). Besides, the Killing logarithmic value in assay [2] (3.12 g/L, 15 min) was found to be 1.23; in assay [2] (3.12 g/L, 30 min), 1.26; in assay [2] (6.25 g/L, 1 min) it was 2.52; in assay [2] (6.25 g/L, 5 min) it was 2.62; in assay [2] (6.25 g/L, 15 min), 2.74; in assay [2] (6.25 g/L, 30 min) it was 2.99. The Killing logarithmic value in assay [3] (0.15 g/L, 1 min) is 0.46; in assay [3] (0.15 g/L, 5 min), 0.51; in assay [3] (0.15 g/L, 15 min), 0.57; in assay [3] (0.15 g/L, 30 min) it was 0.67; in assay [3] (0.31 g/L, 1 min), 0.76; in assay [3] (0.31 g/L, 5 min) it was 0.79. For the same molecule, the Killing logarithmic value in assay [3] (0.31 g/L, 15 min) is recorded as 0.84; in assay [3] (0.31 g/L, 30 min), 0.93; in assay [3] (0.78 g/L, 1 min), 0.99; in assay [3] (0.78 g/L, 5 min) it was 1.08; in assay [3] (0.78 g/L, 15 min), 1.12; in assay [3] (0.78 g/L, 30 min), 1.16. For the same molecule, the Killing logarithmic value in assay [3] (1.56 g/L, 1 min) came out at 1.21; in assay [3] (1.56 g/L, 5 min) it was 1.25; in assay [3] (1.56 g/L, 15 min) it was 1.34; in assay [3] (1.56 g/L, 30 min), 1.65; in assay [3] (3.12 g/L, 1 min), 1.56; in assay [3] (3.12 g/L, 5 min), 1.86. In addition, the Killing logarithmic value is recorded as 1.92 in assay [3] (3.12 g/L, 15 min); 1.98 in assay [3] (3.12 g/L, 30 min); 3.07 in assay [3] (6.25 g/L, 1 min); 3.65 in assay [3] (6.25 g/L, 5 min); 4.55 in assay [3] (6.25 g/L, 15 min); 5.25 in assay [3] (6.25 g/L, 30 min).

The values above are taken from patent US20220279787A1, “a-Substituted Phenyl Structure-Containing Compound, Preparation Method Thereof, and Disinfectant” (Henan Ruibo Pharmaceutical Technology Co. Ltd., priority 2019, published 2022).
